Test results: patent US11559538B2, “Substituted 1,2-oxaborolan-2-ols as PDE4 inhibitors” (Pfizer Inc., priority 2018, dated 2023)
Like-named read-outs stand apart in the source and are kept apart here.

Columns and labels:
[1] = target: PDE4B (aa 152-484, Uniprot ID Q07343) (Homo sapiens (Human), UniProt Q07343); experiment: PDE4 SPA assay (scintillation proximity assay); format: biochemical; details: read-out: PDE4B2 IC50
Procedure: Phosphodiesterase (PDE) activity is determined by measuring the effect of a test agent on the activity of the PDE4B enzyme in a scintillation proximity assay (SPA). At the time of assay, approximately 30 μL of PDE4B (aa 152-484, Uniprot ID Q07343) in 50 mM Tris pH 7.5, 1.3 mM MgC2, 0.004% Brij 35 is added to a 384 well white clear bottom polystyrene plate (Corning) containing 1 μL of varying concentrations of test compound. After −10 minutes at room temperature (RT; 21° C.), the assay is initiated by the addition of 20 μL of a mixture of ^3H-labeled (adenosine 3′, 5′-cyclic phosphate, ammonium salt, [2,8-^3H]; Perkin Elmer) and unlabeled cAMP. The final assay conditions are approximately 81.6 pM PDE4B in 50 mM Tris pH 7.5, 1.3 mM MgCl2, 0.004% Brij 35, 1 μM ^3H-labeled/unlabeled cAMP (1425 dpm/pmol) and the indicated final concentration of test compound (approximately 10 μM to […] by 4-fold dilution). The final concentration of DMSO in the assay is approximately 2.0%. After 30 minutes at RT, the assay is terminated by the addition of approximately 20 μL of an aqueous solution of PDE YSI SPA beads (8 mg/mL in water; Perkin Elmer). The beads are allowed to settle for at least 2 hours and the plate is then counted on a MicroBeta2 (Perkin Elmer). The concentrations and resulting effect values for the tested compound are plotted and the concentration of compound required for 50% effect (IC50) is determined with a four-parameter logistic dose response equation (E-WorkBook, ID Business Solutions Ltd.) and shown in Table 17.

[2] = system: IL-4; experiment: Cytokine assay: IL-4 release from PHA-L stimulated human PBMCs; format: cell-based; details: read-out: IL4 IC50
Outline: (§1)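 PBMC thaw, ~250k cells/well; cpd pre-incubation ~10 min RT; PHA-L 3.5 μg/mL final; 48 h, 37° C, 5% CO2; supernatant HTRF; IC50 by 4-parameter logistic.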

[3] = system: IL-13; experiment: Cytokine assay: IL-13 release from PHA-L stimulated human PBMCs; format: cell-based; details: read-out: IL13 IC50
Outline: as §1

[4] = system: IFNγ; experiment: Cytokine assay: IFNγ release from PHA-L stimulated human PBMCs; format: cell-based
Outline: as §1

Chain of PDE4B (aa 152-484, Uniprot ID Q07343) (Q07343 324-656): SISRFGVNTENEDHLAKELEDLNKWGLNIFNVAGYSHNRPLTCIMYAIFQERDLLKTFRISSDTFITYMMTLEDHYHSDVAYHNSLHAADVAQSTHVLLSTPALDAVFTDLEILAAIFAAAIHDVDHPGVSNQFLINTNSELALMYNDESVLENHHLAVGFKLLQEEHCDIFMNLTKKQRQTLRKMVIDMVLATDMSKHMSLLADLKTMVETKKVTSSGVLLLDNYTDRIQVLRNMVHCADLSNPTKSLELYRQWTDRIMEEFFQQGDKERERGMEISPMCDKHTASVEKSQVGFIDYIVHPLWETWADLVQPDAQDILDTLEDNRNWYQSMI

IC50 [1] [nM]	IC50 ([2]; Homo sapiens, PBMC) [nM]	IC50 ([3]; Homo sapiens, PBMC) [nM]	IC50 ([4]; Homo sapiens, PBMC) [nM]	IC50 [2] [nM]	IC50 [3] [nM]	IC50 [4] [nM]	SMILES
1.73	2.43	1350	3.22				CCOc1cc(-c2cc(C3COB(O)C3)cnc2CC)ccc1OC (stereo not drawn) [Example 171, 4-(5-(3-ethoxy-4-methoxyphenyl)-6-ethylpyridin-3-yl)-1,2-oxaborolan-2-ol]
0.72	163	103	1.81				CCOc1cc(-c2nc(C3COB(O)C3)cs2)ccc1OC (stereo not drawn) [Example 58, 4-(2-(3-ethoxy-4-methoxyphenyl)thiazol-4-yl)-1,2-oxaborolan-2-ol]
0.49	20.2	793	0.87				COc1ccc(-c2cncc(C3COB(O)C3)c2)cc1OC1CCCC1 (stereo not drawn) [Example 149, 4-(5-(3-(cyclopentyloxy)-4-methoxyphenyl)pyridin-3-yl)-1,2-oxaborolan-2-ol]
10.2	7.54	239	2.29				CCCOc1cc(-c2nc(CO)cc(C3COB(O)C3)n2)ccc1OC (stereo not drawn) [Example 57, 4-(6-(hydroxymethyl)-2-(4-methoxy-3-propoxyphenyl)pyrimidin-4-yl)-1,2-oxaborolan-2-ol]
2.7				3.47	3450	3.2	CCOc1cc(-c2cncc(C3COB(O)C3)c2C(F)F)ccc1OC (single isomer, unassigned) [Example 140, 4-(4-(difluoromethyl)-5-(3-ethoxy-4-methoxyphenyl)pyridin-3-yl)-1,2-oxaborolan-2-ol]
0.9	9.78	531	2.65				CCOc1cc(-c2cncc(C3COB(O)C3)c2)cc(C#N)c1OC (stereo not drawn) [Example 118, 3-ethoxy-5-(5-(2-hydroxy-1,2-oxaborolan-4-yl)pyridin-3-yl)-2-methoxybenzonitrile]
2.71				4.11	1160	3.68	CCOc1cc(-c2cncc(C3COB(O)C3)c2C)c(F)cc1OC (single isomer, unassigned) [Example 143, 4-(5-(5-ethoxy-2-fluoro-4-methoxyphenyl)-4-methylpyridin-3-yl)-1,2-oxaborolan-2-ol]
7.77	5.58	1490	4.2				CCCOc1cc(-c2nc(C)cc(C3COB(O)C3)n2)ccc1OC (stereo not drawn) [Example 54, 4-(2-(4-methoxy-3-propoxyphenyl)-6-methylpyrimidin-4-yl)-1,2-oxaborolan-2-ol]
1.14	1.44	2370	1.17				CCOc1cc(C2COB(O)C2)nc(-c2ccc(OC)c(OCC)c2)n1 (stereo not drawn) [Example 222, 4-(6-ethoxy-2-(3-ethoxy-4-methoxyphenyl)pyrimidin-4-yl)-1,2-oxaborolan-2-ol]
1.14	3.54	165	0.7				CCOc1cc(-c2cncc([C@@H]3COB(O)C3)c2)ccc1OC [Example 3, (R)-4-(5-(3-ethoxy-4-methoxyphenyl)pyridin-3-yl)-1,2-oxaborolan-2-ol]
10				77.1	1130	30.2	CCOc1cc(-c2cncc(C3COB(O)C3)c2)cc(Cl)c1OC (single isomer, unassigned; enantiomer 2) [Example 173, 4-(5-(3-chloro-5-ethoxy-4-methoxyphenyl)pyridin-3-yl)-1,2-oxaborolan-2-ol, enantiomer 2]
1.41	4.87	115	0.6				CCOc1cc(-c2cncc(C3COB(O)C3)c2C)ccc1OC (stereo not drawn) [Example 53, 4-(5-(3-ethoxy-4-methoxyphenyl)-4-methylpyridin-3-yl)-1,2-oxaborolan-2-ol]
73.4	3790	10000	209				CCCOc1cc(-c2cccc(C3COB(O)C3C)n2)ccc1OC (stereo not drawn) [Example 27, 4-(6-(4-methoxy-3-propoxyphenyl)pyridin-2-yl)-3-methyl-1,2-oxaborolan-2-ol]
1.25	39.8	181	1.44				CCOc1cc(-c2cncc(C3COB(O)C3)c2)ccc1OC (stereo not drawn) [Example 33, 4-(5-(3-ethoxy-4-methoxyphenyl)pyridin-3-yl)-1,2-oxaborolan-2-ol]
0.52	14.3	309	1.39				CCCOc1cc(-c2cncc(C3COB(O)C3)c2)ccc1OC (stereo not drawn) [Example 34, 4-(5-(4-methoxy-3-propoxyphenyl)pyridin-3-yl)-1,2-oxaborolan-2-ol]
3.58	29.4	750	5.46				CCCOc1cc(-c2cncc(C3COB(O)C3)c2)ccc1OCC (stereo not drawn) [Example 104, 4-(5-(4-ethoxy-3-propoxyphenyl)pyridin-3-yl)-1,2-oxaborolan-2-ol]
0.68	2.23	1300	3.17				COc1ccc(-c2nc(C3COB(O)C3)ns2)cc1OC1CC1 (single isomer, unassigned; enantiomer 2) [Example 181, (−) 4-(5-(3-cyclopropoxy-4-methoxyphenyl)-1,2,4-thiadiazol-3-yl)-1,2-oxaborolan-2-ol, enantiomer 2]
0.5	9.87	460	1.66				COc1cnc(-c2cccc(C3COB(O)C3)c2)nc1OC1CCCC1 (stereo not drawn) [Example 93, 4-(3-(4-(cyclopentyloxy)-5-methoxypyrimidin-2-yl)phenyl)-1,2-oxaborolan-2-ol]
2.27	103	1900	3.29				CCCOc1cc(-c2nccc(C3COB(O)C3)n2)ccc1OC (stereo not drawn) [Example 212, 4-(2-(4-methoxy-3-propoxyphenyl)pyrimidin-4-yl)-1,2-oxaborolan-2-ol]
2.85	33	2020	5.84				COc1ccc(-c2cncc(C3COB(O)C3)c2)cc1OC1CCSCC1 (stereo not drawn) [Example 169, 4-(5-(4-methoxy-3-((tetrahydro-2H-thiopyran-4-yl)oxy)phenyl)pyridin-3-yl)-1,2-oxaborolan-2-ol]
3.16				14.3	284	2.98	COc1ccc(-c2cncc(C3COB(O)C3)c2)cc1OC (single isomer, unassigned) [Example 1, 4-(5-(3,4-dimethoxyphenyl)pyridin-3-yl)-1,2-oxaborolan-2-ol]
12.9	128	1600	14.1				CCCOc1cc(-n2ccc(C3COB(O)C3)n2)ccc1OC (stereo not drawn) [Example 200, 4-(1-(4-methoxy-3-propoxyphenyl)-1H-pyrazol-3-yl)-1,2-oxaborolan-2-ol]
2.04	1.08	988	0.9				CCOc1cc(-c2cncc(C3COB(O)C3)c2C(F)F)ccc1OC (stereo not drawn) [Example 138, 4-(4-(difluoromethyl)-5-(3-ethoxy-4-methoxyphenyl)pyridin-3-yl)-1,2-oxaborolan-2-ol]
2.21				3.94	576	2.27	CCCOc1cc(-c2nc(C3COB(O)C3)cc(C(F)(F)F)n2)ccc1OC (stereo not drawn) [Example 55, 4-(2-(4-methoxy-3-propoxyphenyl)-6-(trifluoromethyl)pyrimidin-4-yl)-1,2-oxaborolan-2-ol]
0.97				7.76	289	0.71	COc1ccc(-c2cncc(C3COB(O)C3)c2)cc1OC1CC1 (single isomer, unassigned) [Example 7, 4-(5-(3-cyclopropoxy-4-methoxyphenyl)pyridin-3-yl)-1,2-oxaborolan-2-ol]
3.46	11.8	317	3.77				CCOc1cc(-c2cncc(C3COB(O)C3)c2)c(F)cc1OC (stereo not drawn) [Example 46, 4-(5-(5-ethoxy-2-fluoro-4-methoxyphenyl)pyridin-3-yl)-1,2-oxaborolan-2-ol]
1.05				17.6	283	0.72	COc1ccc(-c2cncc(C3COB(O)C3)c2)cc1OC(C)C (single isomer, unassigned) [Example 6, 4-(5-(3-isopropoxy-4-methoxyphenyl)pyridin-3-yl)-1,2-oxaborolan-2-ol]
